According to publication PMC12133982, “Predominant T-cell epitopes of SARS-CoV-2 restricted by multiple prevalent HLA-B and HLA-C allotypes in Northeast Asia” (Frontiers in Immunology, 2025):
pIC50: −log10 of the molar value. Peptide text beside a SMILES is read from it.

Legend:
[1] = molecular target: HLA-B1501 (Homo sapiens, UniProt P01889, A329T/A93T/A95T/C349S/D201E/D98Y/E187L/E204Q/E69M/E70A/K202T/N87E/Q94N/R155S/R180W/S121R/S35A/S48A/V306I/V36M/Y140S/Y91S); experiment: Competitive peptide binding assay, CIR-B1501; settings: HMy2.CIR-B1501 cells, reference Cy5-[…], class from inhibition at 5 and 15 μM, flow cytometry MFI; read-out: Binding affinity with HLA-B1501
Method: (§1) Then, competitive peptide binding assays were performed.

[2] = molecular target: HLA-B4601 (Homo sapiens, UniProt P01889, A329T/A93R/C349S/D201E/E100V/E187L/E204Q/E69M/E70A/I90K/K202T/N87E/R155S/R180W/S121R/S35A/S48A/V306I/V36M/Y140S); experiment: Competitive peptide binding assay, CIR-B4601; settings: for pIC50: HMy2.CIR-B4601 cells, reference Cy5-[…], class from inhibition at 5 and 15 μM, flow cytometry MFI, read-out: Binding affinity with HLA-B4601; for inhibition at 5 µM: read-out: Inhibition % of Cy5-reference peptide binding, CIR-B4601, 5μM peptide; for inhibition at 15 µM: read-out: Inhibition % of Cy5-reference peptide binding, CIR-B4601, 15μM peptide
Method: as §1

[3] = molecular target: HLA-B1301 (Homo sapiens, UniProt P01889, A65T/A93T/A95T/D138N/D201E/D98Y/E176V/E204Q/E69M/E70A/G107R/K202T/L105A/L119I/N104T/N87E/Q94N/R106L/R155S/R169L/R180L/S101N/S121R/S35A/S48T/T118I/V127L/V36M/Y140L/Y91S); experiment: Competitive peptide binding assay, CIR-B1301; settings: HMy2.CIR-B1301 cells, reference Cy5-[…], class from inhibition at 5 and 15 μM, flow cytometry MFI; read-out: Binding affinity with HLA-B1301
Method: as §1

[4] = molecular target: HLA-B1502 (Homo sapiens, UniProt P01889, A329T/A93T/A95T/C349S/D201E/D98Y/E187L/E204Q/E69M/E70A/H137Y/K202T/L119I/Q94N/R155S/R180L/S121R/S35A/S48A/T118I/V306I/V36M/Y140S/Y91S); experiment: Competitive peptide binding assay, CIR-B1502; settings: HMy2.CIR-B1502 cells, reference Cy5-[…], class from inhibition at 5 and 15 μM, flow cytometry MFI; read-out: Binding affinity with HLA-B1502
Method: as §1

[5] = molecular target: HLA-B5801 (Homo sapiens, UniProt P01889, A329T/C349S/D201E/D98Y/E176V/E187L/E204Q/E69T/G107R/I218V/I90N/K202T/L105A/L119I/N104I/N87E/Q89R/Q94S/R106L/R155S/R180L/R86G/S101N/S121R/S35A/S48A/T118I/V127L/V306I/V36M/Y140S/Y91M); experiment: Competitive peptide binding assay, CIR-B5801; settings: HMy2.CIR-B5801 cells, reference Cy5-[…], class from inhibition at 5 and 15 μM, flow cytometry MFI; read-out: Binding affinity with HLA-B5801
Method: as §1

[6] = molecular target: HLA-B3501 (Homo sapiens, UniProt P01889, A329T/A93T/A95T/C349S/D201E/D98Y/E176V/E187L/E204Q/E69T/I218V/K202T/L119I/Q94N/R155S/R180L/S121R/S35A/S48A/T118I/V127L/V306I/V36M/Y140S/Y91F); experiment: Competitive peptide binding assay, CIR-B3501; settings: HMy2.CIR-B3501 cells, reference Cy5-[…], class from inhibition at 5 and 15 μM, flow cytometry MFI; read-out: Binding affinity with HLA-B3501
Method: as §1

[7] = molecular target: HLA-B1302 (Homo sapiens, UniProt P01889, A65T/A93T/A95T/D138N/D201E/D98Y/E176V/E204Q/E69M/E70A/G107R/K202T/L105A/L119W/N104T/N87E/Q94N/R106L/R155S/R169L/R180L/S101N/S121T/S35A/S48T/V127L/V36M/Y140L/Y91S); experiment: Competitive peptide binding assay, CIR-B1302; settings: HMy2.CIR-B1302 cells, reference Cy5-MMWYWGPSL, class from inhibition at 5 and 15 μM, flow cytometry MFI; read-out: Binding affinity with HLA-B1302
Method: as §1

SMILES	pIC50 [1]	pIC50 [2]	inhibition at 5 µM [2] [%]	inhibition at 15 µM [2] [%]	pIC50 [3]	pIC50 [4]	pIC50 [5]	pIC50 [6]	pIC50 [7]
CC[C@H](C)[C@H](NC(=O)[C@H](CCC(N)=O)NC(=O)[C@@H](N)CC(C)C)C(=O)N1CCC[C@H]1C(=O)N[C@@H](Cc1ccccc1)C(=O)N[C@@H](C)C(=O)N[C@@H](CCSC)C(=O)N[C@@H](CCC(N)=O)C(=O)N[C@@H](CCSC)C(=O)O [Epitope Y81] (H-LQIPFAMQM-OH; N-terminus and C-terminus assumed)	< 4.82	< 4.82	9.21	44	> 5.30				
CC[C@H](C)[C@H](N)C(=O)N[C@@H](C)C(=O)N[C@@H](CC(N)=O)C(=O)N[C@@H](CCC(N)=O)C(=O)N[C@@H](Cc1ccccc1)C(=O)N[C@@H](CC(N)=O)C(=O)N[C@@H](CO)C(=O)N[C@@H](C)C(=O)N[C@H](C(=O)O)[C@@H](C)CC [Epitope Y283] (H-IANQFNSAI-OH; N-terminus and C-terminus assumed)	4.82 to 5.30				< 4.82	< 4.82			
CC[C@H](C)[C@H](NC(=O)[C@H](CO)NC(=O)[C@H](CCC(N)=O)NC(=O)[C@H](CO)NC(=O)[C@H](C)NC(=O)[C@@H](N)C(C)C)C(=O)N[C@H](C(=O)N[C@@H](C)C(=O)N[C@@H](Cc1ccc(O)cc1)C(=O)O)[C@@H](C)CC [Epitope Y151] (H-VASQSIIAY-OH; N-terminus and C-terminus assumed)	< 4.82						< 4.82	> 5.30	> 5.30
CC[C@H](C)[C@H](NC(=O)[C@H](CC(C)C)NC(=O)[C@@H](N)CCC(=O)O)C(=O)N[C@@H](CCCNC(=N)N)C(=O)N[C@@H](CCC(N)=O)C(=O)NCC(=O)N[C@H](C(=O)N[C@@H](CC(=O)O)C(=O)N[C@@H](Cc1ccc(O)cc1)C(=O)O)[C@@H](C)O [Epitope Y162] (H-ELIRQGTDY-OH; N-terminus and C-terminus assumed)	< 4.82	> 5.30				4.82 to 5.30	4.82 to 5.30	< 4.82	< 4.82
CC(C)C[C@H](N)C(=O)N1CCC[C@H]1C(=O)N[C@@H](CC(N)=O)C(=O)N[C@@H](CC(N)=O)C(=O)N[C@H](C(=O)N[C@@H](C)C(=O)N[C@@H](CO)C(=O)N[C@@H](Cc1c[nH]c2ccccc12)C(=O)N[C@@H](Cc1ccccc1)C(=O)O)[C@@H](C)O [Epitope Y17] (H-LPNNTASWF-OH; N-terminus and C-terminus assumed)	< 4.82						< 4.82	> 5.30	< 4.82
CC[C@H](C)[C@H](NC(=O)[C@@H](NC(=O)[C@H](CC(C)C)NC(=O)[C@H](CCC(=O)O)NC(=O)[C@H](CO)NC(=O)[C@H](CCC(=O)O)NC(=O)[C@H](CC(C)C)NC(=O)[C@H](CC(C)C)NC(=O)[C@@H]1CCCN1C(=O)[C@@H](N)CCCNC(=N)N)C(C)C)C(=O)O [Epitope Y43] (H-RPLLESELVI-OH; N-terminus and C-terminus assumed)					4.82 to 5.30				
CC(C)[C@H](NC(=O)CNC(=O)[C@H](Cc1c[nH]cn1)NC(=O)[C@@H]1CCCN1C(=O)[C@H](C)NC(=O)[C@H](CO)NC(=O)[C@H](CCC(N)=O)NC(=O)[C@@H]1CCCN1C(=O)[C@@H](N)Cc1ccccc1)C(=O)O [Epitope Y281] (H-FPQSAPHGV-OH; N-terminus and C-terminus assumed)	4.82 to 5.30				< 4.82	< 4.82			< 4.82
CC[C@H](C)[C@H](NC(=O)[C@@H](NC(=O)[C@H](CCC(=O)O)NC(=O)[C@H](CCC(=O)O)NC(=O)[C@@H](N)Cc1c[nH]cn1)[C@@H](C)O)C(=O)N[C@@H](Cc1ccc(O)cc1)C(=O)N[C@@H](CC(N)=O)C(=O)N[C@@H](CC(C)C)C(=O)N[C@@H](CC(C)C)C(=O)O [Epitope Y199] (H-HEETIYNLL-OH; N-terminus and C-terminus assumed)		< 4.82	24.9	44.1			4.82 to 5.30	> 5.30	4.82 to 5.30
C[C@@H](O)[C@H](NC(=O)CNC(=O)[C@H](CCC(N)=O)NC(=O)[C@@H](N)CCCNC(=N)N)C(=O)N[C@@H](CC(=O)O)C(=O)N[C@@H](Cc1ccc(O)cc1)C(=O)N[C@@H](CCCCN)C(=O)N[C@@H](Cc1c[nH]cn1)C(=O)N[C@@H](Cc1c[nH]c2ccccc12)C(=O)O [Epitope Y222] (H-RQGTDYKHW-OH; N-terminus and C-terminus assumed)	4.82 to 5.30								< 4.82
CSCC[C@H](NC(=O)[C@H](CO)NC(=O)[C@H](CCCNC(=N)N)NC(=O)[C@@H](NC(=O)[C@H](CCCNC(=N)N)NC(=O)[C@H](C)NC(=O)[C@@H](N)Cc1ccccc1)[C@@H](C)O)C(=O)N[C@@H](Cc1c[nH]c2ccccc12)C(=O)N[C@@H](CO)C(=O)N[C@@H](Cc1ccccc1)C(=O)O [Epitope Y47] (H-FARTRSMWSF-OH; N-terminus and C-terminus assumed)		< 4.82				> 5.30	< 4.82	> 5.30	< 4.82
CC(C)C[C@H](NC(=O)[C@H](CC(C)C)NC(=O)[C@H](CC(C)C)NC(=O)[C@H](C)NC(=O)[C@H](CC(C)C)NC(=O)[C@H](C)NC(=O)[C@H](C)NC(=O)[C@H](CC(=O)O)NC(=O)CN)C(=O)O [Epitope Y65] (H-GDAALALLL-OH; N-terminus and C-terminus assumed)	4.82 to 5.30				> 5.30		4.82 to 5.30	< 4.82	
CC(C)C[C@H](NC(=O)[C@@H](N)CCC(N)=O)C(=O)N[C@H](C(=O)N1CCC[C@H]1C(=O)N[C@H](C(=O)N[C@@H](Cc1c[nH]c2ccccc12)C(=O)N[C@@H](CCCNC(=N)N)C(=O)N[C@H](C(=O)N[C@@H](Cc1ccc(O)cc1)C(=O)O)C(C)C)[C@@H](C)O)[C@@H](C)O [Epitope Y175] (H-QLTPTWRVY-OH; N-terminus and C-terminus assumed)	< 4.82				< 4.82	4.82 to 5.30	> 5.30	< 4.82	
C[C@H](NC(=O)[C@H](Cc1ccc(O)cc1)NC(=O)[C@H](C)NC(=O)[C@@H](N)Cc1ccccc1)C(=O)N[C@@H](CC(N)=O)C(=O)N[C@@H](CCCNC(=N)N)C(=O)N[C@@H](CC(N)=O)C(=O)N[C@@H](CCCNC(=N)N)C(=O)N[C@@H](Cc1ccccc1)C(=O)O [Epitope Y49] (H-FAYANRNRF-OH; N-terminus and C-terminus assumed)	< 4.82						4.82 to 5.30	> 5.30	< 4.82
CC(C)C[C@H](NC(=O)[C@H](CC(=O)O)NC(=O)[C@H](CCC(N)=O)NC(=O)[C@@H](NC(=O)[C@@H](N)CO)[C@@H](C)O)C(=O)N[C@@H](Cc1ccccc1)C(=O)N[C@@H](CC(C)C)C(=O)N1CCC[C@H]1C(=O)N[C@@H](Cc1ccccc1)C(=O)O [Epitope Y249] (H-STQDLFLPF-OH; N-terminus and C-terminus assumed)	4.82 to 5.30				< 4.82				< 4.82
CC(C)[C@H](NC(=O)[C@@H](N)Cc1ccccc1)C(=O)N[C@@H](CO)C(=O)N[C@@H](CC(N)=O)C(=O)NCC(=O)N[C@H](C(=O)N[C@@H](Cc1c[nH]cn1)C(=O)N[C@@H](Cc1c[nH]c2ccccc12)C(=O)N[C@@H](Cc1ccccc1)C(=O)O)[C@@H](C)O [Epitope Y250] (H-FVSNGTHWF-OH; N-terminus and C-terminus assumed)	< 4.82					< 4.82		< 4.82	< 4.82
